Laboratory results published in patent US11400082B2, “Methods of treating elevated plasma cholesterol” (Montréal Heart Institute, priority 2017, dated 2022).
Like-named read-outs stand apart in the source and are kept apart here.

Experiments:
LDLR protein = experiment: Western blot analysis, relative quantification of LDLR protein levels; type: cell-based, human; conditions: overnight, hepatoma cells (HepG2, FIG. 13), normalized to actin, vehicle (DMSO) = 1
Protocol: For sterol-regulated conditions, HepG2 cells were incubated in 5% LPDS, 50 μM mevastatin, and 50 μM mevalonolactone in the absence (-sterols) or presence of 1 μg/ml 25-hydroxycholesterol and 10 μg/ml cholesterol (+sterols). For inhibitor treatments HepG2 cells were treated with DMSO or 10 μM compounds 2 in combination with U0126 (25 μM, catalog no. 9903, Cell Signaling Technology), Cycloheximide (CHX; 20 μg/ml, catalog no. C7698, Sigma-Aldrich), PD153035 (20 μM, catalog no. 14879, Cayman Chemical), bisindolylmaleimide I (BIM; 10 μM, catalog no. 13298, Cayman Chemical), H-89 (10 μM, catalog no. 10010556, Cayman Chemical), Dorsomorphin (5 μM, catalog no. 11967, Cayman Chemical) or 5-Azacytidine (10 μM, catalog no. A2385, Sigma-Aldrich).
Treated cells from Example 28 were washed three times in phosphate-buffered saline (PBS) and lysed in radioimmune precipitation assay buffer (50 mM Tris/HCl, pH 8.0, 1% (v/v) Nonidet P-40, 0.5% sodium deoxycholate, 150 mM NaCl, and 0.1% (v/v) SDS) supplemented with a complete protease inhibitor mixture (catalog no. 11 697 498 001, Roche Applied Science). Proteins were separated by 8% SDS polyacrylamide gel electrophoresis, blotted on nitrocellulose membranes (Bio-Rad), and blocked for 1 h in Tris-buffered saline-Tween 20 (TBS-T; 50 mM Tris-HCl, pH 7.5, 150 mM NaCl, 0.1% Tween 20) containing 5% nonfat dry milk. Membranes were then incubated overnight in TBS-T supplemented with 1% nonfat milk and the indicated antibodies; goat anti-human LDLR (1:1000; catalog no. AF2148, R&D Systems), rabbit anti-actin (1:5000; catalog no. A2066, Sigma-Aldrich). Appropriate HRP-conjugated secondary antibodies (1:10,000; GE healthcare) were used for detection using the Western Lightning Ultra chemiluminescence kit (catalog no. NEI112001EA, PerkinElmer Life Sciences) and BioFlex EC Films (catalog no. CLEC810, InterScience). Unsaturated films were numerized using the high resolution CanoScan 9000F scanner and corresponding bands were quantified using the ImageJ software (NIH). Relative quantification of LDLR protein levels were normalized to that of actin and compared to vehicle (DMSO) herein determined as 1.

Golden Syrian = experiment: Efficacy and safety in hypercholesterolemic animal models, Golden Syrian; type: in vivo; conditions: 10 days
Protocol: For in vivo proof-of-concept animal studies, wild-type C57BL/6 male mice (˜25 g; obtained from Charles River Laboratories) or Golden Syrian (˜120 g obtained from Envigo++) were housed in the 12 hour light/12 hour dark cycle, temperature and humidity controlled MHI animal facility. […] TD.88137, Envigo) for 14 days. […] Equivalent volume of vehicle containing corresponding formulations were orally administered to mice daily and designated as placebo (vehicle). […] Total cholesterol (catalog no. 439-17501, Wako) was quantified in total plasma and in each 0.3 mL collected fractions or in-line (Lipidomics Core of The Group on Molecular and Cell Biology of Lipids, University of Alberta) according to the manufacturer's instructions. Relative quantitation of AUC of total cholesterol corresponding to non-HDL lipoprotein positive fractions obtained from FPLC profiles are included in Table 3. Serum aspartate aminotransferase (AST) and alanine transaminase (ALT) were measured by the Montreal Heart Institute biochemical clinical chemistry platform according to manufacturer's recommendations.

[1] = Pharmacokinetics in adult Sprague-Dawley rats; type: in vivo; conditions: average n = 4; for Cmax / AUC / AUC(0-t): rat blood
Protocol: All animal studies were approved by the Montreal Heart Institute (MHI) Animal Care and Ethical committee. Pharmacokinetic experiments were performed in collaboration at the Montreal Heart Institute in collaboration with the Platform of Biopharmacy at Université de Montréal. Briefly, Compound 2 (formulation PG:H20; 50:50 stock solution 2.5 mg/ml) was administered intravenously (iv) at 5 mg/kg (n=4) or by oral gavage (PO) at 25 mg/kg (n=4) in adult Sprague-Dawley male rats (˜200 g). […] Samples were mixed and centrifuged at 15000 rpm for 5 min. 50 μL of supernatant were transferred to an HPLC plate, and 100 μL of water+0.1% formic acid were added. […] Samples were analyzed in MRM mode using LC-MS/MS. The calibration curve was plotted using the ratio of the analyte peak area and the IS peak area, using a quadratic regression. Pharmacokinetic (PK) parameters were calculated using Kinetica Software for PK/PD Data Analysis, Simulation and Reporting (Thermo Fisher), based on the blood concentrations of each animal. Results are described in Table 4 and illustrated in FIG. 20.

[2] = HFD, 40 mpk/d, animals out of n
[3] = male, Sprague-Dawley, rat, whole blood, PO 25 mg/kg
[4] = male, Sprague-Dawley, rat, whole blood, iv 5 mg/kg
[5] = male, Sprague-Dawley, whole blood, PO 25 mg/kg
[6] = male, Sprague-Dawley, whole blood, iv 5 mg/kg

Lz ([1]; PO 25 mg/kg): 0.24 h⁻¹
Vss ([1]; PO 25 mg/kg): 2.43 L
clearance ([1]; PO 25 mg/kg): 13.44 mL/min
thalf ([1]; PO 25 mg/kg): 2.97 h
Cmax ([1]; PO 25 mg/kg): 7.09 μMolar
Lz ([1]; iv 5 mg/kg): 0.12 h⁻¹
thalf ([1]; iv 5 mg/kg): 6.60 h
Cmax ([1]; iv 5 mg/kg): 81.12 μMolar
bioavailability ([1]; male, Sprague-Dawley, rat, whole blood, PO 25 mg/kg vs iv 5 mg/kg): 15%
MRT [1, 3]: 206 min
Tmax [1, 3]: 19.8 min
MRT [1, 4]: 33 min
Tmax [1, 4]: 4.8 min
clearance ([1]; male, Sprague-Dawley, rat, whole blood, iv 5 mg/kg, read-out: Clearance): 2.2 mL/min
Vd ([1]; male, Sprague-Dawley, rat, whole blood, iv 5 mg/kg, read-out: Vss): 0.08 L
AUC [1, 5]: 24.3 µM·h
AUC(0-t) [1, 5]: 24.2 µM·h
AUC [1, 6]: 31.9 µM·h
AUC(0-t) [1, 6]: 31.8 µM·h
Compound: O=C(NO)c1ncc(COc2ccc(F)cc2)c(CO)c1O [Compound 2, 5-(4-fluoro-phenoxymethyl)-3-hydroxy-4-hydroxymethyl-pyridine-2-carboxylic acid hydroxyamide]
LDLR Fold Change 10 nM (LDLR protein; 10 nM): 2
LDLR Fold Change 10 μM (LDLR protein; 10 μM): 6.3
LDL-C (%) (FPLC TC) (pooled plasma) (Golden Syrian; Chow, 40 mpk/d, n 3): −12%
LDL-C (%) (FPLC TC) (pooled plasma) (Golden Syrian; HFD, 5 mpk/d, n 3): −21 ± 10%
LDL-C (%) (FPLC TC) (pooled plasma) (Golden Syrian; HFD, 10 mpk/d, n 3): −15 ± 16%
LDL-C (%) (FPLC TC) (pooled plasma) (Golden Syrian; HFD, 20 mpk/d, n 3): −40 ± 7%
ALT (3 × ULN) (Golden Syrian; [2]): 0/3
AST (3 × ULN) (Golden Syrian; [2]): 0/3
LDL-C (%) (FPLC TC) (pooled plasma) (Golden Syrian; HFD, 40 mpk/d, n 3 (second HFD 40 mpk/d line)): −26 ± 12%
LDL-C (%) (FPLC TC) (pooled plasma) (Golden Syrian; HFD, 40 mpk/d, n 3, value marked (n = 1)): −47%
